The text below walks through data of US20210062263A1, “A CLINICAL […]” (priority 2016, published 2021).

The test system of one assay is activin A. Nature of the assay: Serum activin A levels (ELISA) in wounded male mice. The assay is classed as in vivo. Here is the method: Implants were prepared by cutting medical grade Silastic (polydimethylsiloxane) tubing (1.5 mm inner diameter, 2.3 mm outer diameter, Aunet Pty Ltd, WA, Australia) to the desired length (1 cm long) and sealing one end with Multi-Purpose Sealant (Dow Corning RTV Sealant). After 24 hours each tube was packed with either crystalline testosterone (Sigma #T-1500) or left empty (vehicle implant). The open end was then sealed and implants were allowed to dry for at least 24 hours prior to surgical implantation. The implant size was considered to be the length of tubing containing testosterone. Prior to subcutaneous insertion, implants were sterilized in absolute ethanol for 10 minutes which also removed any androgen adhering to its external surface. Each testosterone or vehicle implant was inserted subcutaneously via a 5-mm nape incision in intact and castrated male mice three weeks before the wound healing experiments and the incision site was closed with 5/0 sutures.
(§1) Under anesthesia, the dorsal flanks of each 9 weeks old mouse (n=6/group) were carefully shaved and cleansed with 70% v/v ethanol. To create wounds, full-thickness, parasagittal linear incisions (1 cm long) were made through the skin and underlying the panniculus carnosus muscle on each flank and each wound was closed using two 5/0 silk sutures placed 3 mm from each end of the wound. Post operatively, all animals received analgesia to minimize pain, were allowed to recover on a heated pad and then housed in groups of four animals per cage. Incisions were examined and assessed on days 3, 5, 7 and post-wounding.
Blood samples were collected between 10:00 and 10:30 am by cardiac puncture at different time points (0d, 3d, 5d, 7d or 14d) according to the experimental protocol. The samples were allowed to coagulate for 30 minutes then centrifuged at 10,000 g for 10 minutes to collect serum which was stored at −20° C. until assayed.
Activin A levels were measured in serum and skin using a specific ELISA and human recombinant activin A as a standard, according to manufacturer's instructions (Oxford Bioinnovations, Cherwell, Oxfordshire, UK) [Knight et al. (1996) J Endocrinol 148(2):267-279]. The assay sensitivity for serum activin A was 11 pg/ml, with an intra-assay variation of 4.6-7.5% and an inter-assay variation of 10.6%.
On the technique in general: ELISA stands for enzyme-linked immunosorbent assay.

A further assay deals with follistatin. Nature of the assay: Cutaneous follistatin levels (RIA) after wounding. The assay is classed as in vivo, mice.
Text: as §1
Following exsanguination, anesthetized animals were killed by cervical dislocation. Full-thickness specimens of the skin wound, consisting of the entire wound scar surrounded by a border of about 3-mm, were excized and bisected. Half of each sample was frozen at −80° C. and the other half was fixed in 4% v/v paraformaldehyde (Sigma-Aldrich, NSW, Australia) and processed for histology. Unwounded skin was obtained from the dorsum of the trunk near the tail of each animal to determine protein levels. […]
Serum and skin follistatin levels were measured by RIA using human recombinant follistatin 288 as standard and as tracer following labeling with I^125 (O'Conner et al. (1999) Hum Reprod 14(3):827-832). […]

Another assay deals with CD45+ cells. Nature of the assay: Immunohistochemical analysis of leukocyte infiltration (CD45+ cells). The assay is classed as in vivo, mice. From the text:
CD45, also known as leukocyte common antigen (LCA), was used to detect infiltrating leukocytes as a marker of inflammation (Hermiston et al. (2003) Annul Rev Immunol 21:107-137). Five micron thick sections were cut and placed on Menzel-Glaser Polysine (Registered Trade Mark) slides (Thermo Scientific), air-dried and stored at room temperature. Slides were stained using an automated system (DAKO Autostainer Plus), at room temperature; sections were rehydrated and antigen retrieved with the Dako buffers citrate pH6.1. Slides were peroxidase-blocked in 3% v/v hydrogen peroxide (H2O2) in methanol for 10 mins. They were then blocked with CAS-Block (Invitrogen, CA, USA) for 10 minutes, and then incubated with primary antibody (CD45 biotinylated rat anti-mouse antibody, 1:200) for 20 min. Vectastain ABC kit (Vector Labs, Burlingame, Calif.) was subsequently applied for 30 minutes and further colorimetric detection was completed with diaminobenzidine (DAB) for 5 minutes. Sections were counterstained with haematoxylin and slides coverslipped under DePeX.
Leukocyte infiltration was assessed by calculating the average number of CD45+ cells in four random high-power fields (HPF) per tissue section from each group. Data presented reflect the mean total cell count per field from the wound area at days 3 and 5 post-wounding.

For a further assay, the system named is TNF-α. Nature of the assay: Cutaneous TNF-α levels (ELISA) after wounding. The assay is classed as in vivo, mice. Here is the method: Frozen samples of wounded and unwounded skin were homogenized (Janke & Kunkel Ultraturrax T25 homogenizer, IKA Labortechnik, Staufen, Germany) in 1% v/v protease inhibitor (Calbiochem, San Diego, Calif.) and the homogenates were centrifuged at 4° C. to remove debris prior to assay.
Cutaneous levels of IL-6 and TNF-α were measured in skin samples using ELISAs according to the manufacturer's instructions (R&D Systems Inc, MN, USA). The sensitivity of the IL-6 ELISA was 5.97 pg/ml; the intra-assay variation was of 3.4% and the inter-assay variation was 4.1%. Mouse recombinant was used as a standard for the TNF-α assay; the sensitivity of the ELISA was 9.04 pg/ml; the intra-assay variation was of 12.8% and the inter-assay variation was 12.7%. The concentrations are expressed per mg of tissue (wet weight).

Consider `C[C@]12CC[C@H]3[C@@H](CCC4=CC(=O)CC[C@@]43C)[C@@H]1CC[C@@H]2O` [testosterone], for which the “Serum Activin A” value in the assay with activin A (Castrated + T males, 0 d) came out at 80.2 ± 7.8 pg/mL; in the assay with activin A (Castrated + T males, 3 d), 65.4 ± 5.8 pg/mL; with activin A (Castrated + T males, 5 d) it was 54.9 ± 7.7 pg/mL; in the assay on activin A (Castrated + T males, 7 d) it was 83.8 ± 7.3 pg/mL; in the assay with activin A (Castrated + T males, 14 d), 93 ± 7.7 pg/mL; in the assay with activin A (Intact + T males, 0 d), 65.4 ± 6.8 pg/mL. Besides, the “Serum Activin A” value is 85.2 ± 5 pg/mL with activin A (Intact + T males, 3 d); 74.9 ± 6.9 pg/mL in the assay with activin A (Intact + T males, 5 d); 92.1 ± 3.8 pg/mL in the assay on activin A (Intact + T males, 7 d); 74.6 ± 3.5 pg/mL in the assay on activin A (Intact + T males, 14 d). The “serum activin levels (in words)” value in the assay with activin A (castrated males, testosterone replacement vs castrated+Vh, days 3 and 5 post wounding) is “decreased serum activin levels”. In addition, the “follistatin levels in skin” value is recorded as “significantly higher” in the assay with follistatin (castrated testosterone replacement group vs vehicle group, day 3 post-wounding) and “significantly lower” in the assay with follistatin (intact males given testosterone vs intact males that received vehicle). In addition, in the assay on CD45+ cells (castrated group with testosterone replaced vs castrated group, days 3 and 5 post-wounding), the “number of CD45+ cells” value was “significantly increased”. The “leukocyte migration and infiltration to the wound site (summary)” value with CD45+ cells (male mice) is “increased migration and infiltration of leukocytes”. Also, the TNF-α skin levels result in the assay with TNF-α (castrated males, testosterone replaced vs castrated males, days 5 and 7) was “significantly higher”; in the assay on TNF-α (castrated males, testosterone replaced, day 7 post-wounding), “significantly increased”; in the assay with TNF-α (intact males given testosterone vs intact group, day 3 post-wounding) it was “significantly increased”.
